Test results as given in PMC10037499, “High-Throughput Screen Reveals the Structure–Activity Relationship of the Antimicrobial Lasso Peptide Ubonodin” (ACS Central Science, 2023).
In brackets after ≈: the same amount, converted by molar mass. Where a SMILES comes first, the peptide text is derived from it.

What was measured:
B. cenocepacia AU0756 = tested on: B. cenocepacia AU0756; design: method as in PMID 35802499; settings: spot-on-lawn assay; cited from earlier work
From the text: We proceeded to test the antimicrobial activity of the selected variants against two clinical isolates of the Bcc, B. cenocepacia AU0756 and B. cenocepacia AU24362, in broth microdilution assays. […] We revisited these measurements using broth microdilution assays following the Clinical & Laboratory Standards Institute (CLSI) standard.

E. coli RNAP = settings: cited from earlier work
E. coli MC1061 = experiment: Spot dilution assay of E. coli producing the ubonodin variant from pUboABC; format: cell-based; settings: variant in pUboABC backbone in E. coli MC1061, induction with 100 μM IPTG, ten-fold serial dilutions, biological duplicates
Method in brief: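 E. coli MC1061 carrying the plasmids was grown at 37 °C in LB with 100 μg/mL ampicillin to OD600 0.3, then induced with 100 μM IPTG. Samples taken before induction and at later timepoints were PBS-washed, spotted as ten-fold dilutions on ampicillin/0.2% glucose LB plates, and imaged after 16 h at 37 °C.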

With CC[C@H](C)[C@@H]1NC(=O)[C@H](CO)NC(=O)CNC(=O)[C@H](CC(=O)O)NC(=O)CNC(=O)CNC(=O)CC[C@@H](C(=O)N[C@@H](Cc2ccc(O)cc2)C(=O)N[C@@H](Cc2ccccc2)C(=O)N[C@@H](CC(N)=O)C(=O)N[C@@H](CCCNC(=N)N)C(=O)N2CCC[C@H]2C(=O)N[C@@H](CCSC)C(=O)N[C@@H](Cc2c[nH]cn2)C(=O)N[C@H](C(=O)N[C@@H](Cc2c[nH]cn2)C(=O)N[C@@H](CC(=O)O)C(=O)N[C@@H](Cc2c[nH]c3ccccc23)C(=O)N[C@@H](CCC(N)=O)C(=O)N[C@H](C(=O)N[C@@H](CCSC)C(=O)N[C@@H](CC(=O)O)C(=O)N[C@@H](CO)C(=O)NCC(=O)N[C@@H](Cc2ccc(O)cc2)C(=O)N[C@@H](Cc2ccc(O)cc2)C(=O)NCC(=O)O)[C@@H](C)CC)[C@@H](C)CC)NC(=O)[C@H](C)NC1=O [WT, ubonodin] (HELM PEPTIDE1{G.G.D.G.S.I.A.E.Y.F.N.R.P.M.H.I.H.D.W.Q.I.M.D.S.G.Y.Y.G}$PEPTIDE1,PEPTIDE1,1:R1-8:R3$$$V2.0; C-terminus assumed) as the compound, how does the “MIC against strain AU0756” value (B. cenocepacia AU0756) read?
Its value is 10 µM (≈ 32 µg/mL).

And the “Inhibition of E. coli RNAP in vitro” value (E. coli RNAP)?
The value was “inhibits E. coli RNAP in vitro”.

And the “Inhibits Growth” value (E. coli MC1061)?
Its value is “Yes”.
